Here are results for one compound from patent US20260315564A1, “THE USE OF TP3 (THYMOPENTIN ANALOG) BY INCREASING THE ACTIVITY AND NUMBER OF T-CELLS INVOLVED IN THE DEFENSE MECHANISM OF THE IMMUNE SYSTEM OF MAMMALS, FOR THE PREVENTION OR TREATMENT OF DISEASES TO EXTEND THE AVERAGE LIFESPAN” (priority 2023, published 2026).

Marks after values point to notes of the source that are not given here. Residues, ends and D or L forms follow the SMILES beside them.

For assay [1], the system named is Thy1+, Lyt 1+ (helper) and Lyt 2+ (suppressor) cells. Description: Thy1+ cells and helper/suppressor (Lyt 1/Lyt 2) cell ratio in bone marrow and spleen of Balb/c nu/nu mice. Particulars: for Lyt 1/Lyt 2 (helper/suppressor cell ratio) / Thy1+ (%): 10^-5 M/mice/ip every other day for 3 weeks (9x). The assay is classed as in vivo. As to the method: • D.1/Direct cytotoxicity test/for the detection of Thy, Lyt antigens (Fathman 1979, in Immunol Meth I. Eds. Lefkovits, Pernis, Acad Press, New York, pp. 212-213.) was used. Subpopulation ratios were determined from bone marrow cells, thymus, and spleen cells isolated from the lymphatic organs of mice. The cell suspensions (1.087-1.088 g/cm3) were centrifuged ona density gradient (2000 rpm, 20 minutes), and the cells were washed 3× with RPMI1640 medium containing 0.3% BSA, then adjusted to 107/ml. Thyl, Lyt 1, Lyt2 monoclonal antibodies (McAb/Ando I. (ICRF Human Tumor Immunol. UCM Med Sch. London) were obtained. 25 μl McAb and 25 ul cell suspension were incubated (60′, 40C1), after centrifugation (1250 rpm 10′), the cells were resuspended with 40 μul of diluted (1:50) rabbit complement, then incubated (370C, 60′). The cell suspensions were stained with 1:5 dilution of Eosin Y (Jansen). the ratio of live to non-living cells was determined.
n=8/group; Treatment: 10^-5 M/mice/ip every other day for 3 weeks (9×/ip.)

The test system of assay [2] is healthy human lymphocytes. In words: E-rosette test, ex vivo on healthy human cells. Particulars: for effect ex vivo on healthy human cells (rosette-forming cells): control 27.8 (TP5), 30.3 (TP3). Type of assay: cell-based. Also on record: effect ex vivo on healthy human cells (rosette-forming cells): unit not given here. As to the method:
Blood from donors was used for our experiments, where the blood samples were used either from animals or human donors. The heparinized blood samples were separated on a (FicolUromiro/Pharmacia-Bracco) gradient (Boyum 1968). 2×10^6 and 107 lymphocytes/ml cells were tested in E-rosette tests, the blood donors were the following animals: • Rat: Hannover Wistar (Richter) newborn rats were used to study the maturation of the immune response. As our mothers, 12 (maximum) randomized newborns were placed (21±10C, humidity: min. 65%) in a test litter. • Guinea pig: Donkin-Hartley (Lati) 250-300 g male animals were included for the DTH reaction test. • 2.3.3/Mice: Mouse strains of different genetic backgrounds were used: CFLP (outbred) from the Lati stock), Balb/c (inbred) and Balb/c nu/nu mice from the SzBC/Szeged stock.
In a preliminary study, the ED75 inhibitory effect of azathioprine was determined (Verhagen et al., 1980) and 500 μg/ml was used during the studies. An equal volume (200 μl) of activityinhibiting and isolated cell suspension and peptides ([…]) were measured. After 1 h (370C) incubation, the cell suspensions received 200 μl of 1% SRBC suspension and then centrifuged (90×g 5 minutes), 400 μl of the supernatant was aspirated.
The number of rosette-forming cells was counted. The activity was determined as percent recovery (R %). […]

In assay [3] the test system is Active E-rosette forming cells (human lymphocytes). Description: Active E-rosette forming cells. Type of assay: cell-based. The note with it: control 6.3 (TP5), 5.2 (TP3). As to the method: The test was carried out according to the method of (Wybran and Fundenberg 1973). 107/ml lymphocytes from either healthy blood donors or autoimmune patients were included in the tests. The effect of the substances was tested in the presence of 100 μl of […]. test compound. After an incubation period, 100 μul of cell suspension was placed on a glass slide, fixed for 3 minutes (with 50 μl of 3% glutaraldehyde solution), and stored in a humid chamber until evaluation.

Consider `CC(C)[C@H](NC(=O)[C@H](CC(=O)O)NC(=O)[C@H](CCCCN)NC(=O)[C@@H](N)CCCN=C(N)N)C(=O)N[C@@H](Cc1ccc(O)cc1)C(=O)O` [TP5] (H-RKDVY-OH), for which the “Lyt 1/Lyt 2 (helper/suppressor cell ratio)” value in assay [1] (bone marrow (Csontvelő), control 0.97) is recorded as 1.95; in assay [1] (spleen (Lép), control 1.10) it was 2.48. Further, the “Thy1+ (%)” value in assay [1] (bone marrow (Csontvelő), control 3.7) was determined as 47.3%; in assay [1] (spleen (Lép), control 5.4) it was 71.0%. In addition, the “change in the spleen” value in assay [1] (spleen, 10^-5 M/mice/ip, 9x) was 130%. Moreover, the “effect ex vivo on healthy human cells (rosette-forming cells)” value is 26.9 in assay [2] (10^-5 mol/l); 24.4 in assay [2] (10^-6 mol/l); 29.4 in assay [2] (10^-7 mol/l); 27.1 in assay [2] (10^-8 mol/l); 26.1 in assay [2] (10^-9 mol/l); 25.5 in assay [2] (10^-11 mol/l). Also, the “effect ex vivo on healthy human cells (rosette-forming cells)” value in assay [2] (10^-12 mol/l) is listed as 28.4; in assay [2] (10^-13 mol/l), 25.9; in assay [2] (10^-14 mol/l), 26.1. Further, the “activity on lymphocytes from healthy individuals” value in assay [2] (in words) is “ineffective”. Further, the “Active E-rosette forming cells” value in assay [3] (10^-5 mol/l) is 8.6*; in assay [3] (10^-7 mol/l), 7.5; in assay [3] (10^-9 mol/l), 7.2; in assay [3] (10^-11 mol/l), 10.7*; in assay [3] (10^-13 mol/l), 7.9*.
